In the NIST ThermoML archive (doi:10.1021/je2012633):
± gives the expanded uncertainty stated by the source.

Legend:
[1] = 101 kPa, Liquid, Vibrating tube method
[2] = xn = mol fraction of the nth substance listed; conditions: 101 kPa, Liquid, Vibrating tube method

CCOS(=O)(=O)[O-].CCn1cc[n+](C)c1 [1-ethyl-3-methylimidazolium ethyl sulfate]
[1]
Conditions	mass density [kg/m3]
288.15 K	1245.3 ± 1.6
298.15 K	1238.3 ± 1.6
308.15 K	1231.6 ± 1.6
318.15 K	1224.9 ± 1.6

CCOS(=O)(=O)[O-].CCn1cc[n+](C)c1 [1-ethyl-3-methylimidazolium ethyl sulfate] + CCO
mass density [kg/m3], [2]
Conditions	288.15 K	298.15 K	308.15 K	318.15 K
x1 = 0.0494	864.9 ± 1	856.6 ± 1	848.1 ± 1	839.7 ± 1
x1 = 0.1233	943.6 ± 1	935.6 ± 1	927.6 ± 1	919.5 ± 1
x1 = 0.2469	1035.3 ± 1	1027.6 ± 1	1019.9 ± 1	1012.3 ± 1
x1 = 0.3485	1088.4 ± 1.1	1080.9 ± 1.1	1073.4 ± 1	1066 ± 1
x1 = 0.4727	1136.8 ± 1.1	1129.5 ± 1.1	1122.2 ± 1.1	1115 ± 1.1
x1 = 0.5667	1164.9 ± 1.1	1157.7 ± 1.1	1150.6 ± 1.1	1143.5 ± 1.1
x1 = 0.6483	1185.3 ± 1.2	1178.2 ± 1.2	1171.2 ± 1.2	1164.2 ± 1.2
x1 = 0.7421	1205.3 ± 1.3	1198.3 ± 1.3	1191.3 ± 1.3	1184.4 ± 1.3
x1 = 0.827	1220.5 ± 1.4	1213.8 ± 1.4	1206.8 ± 1.4	1200 ± 1.3
x1 = 0.9211	1234.8 ± 1.5	1227.9 ± 1.5	1221.1 ± 1.5	1214.3 ± 1.5
x1 = 1	1245.3 ± 1.6	1238.3 ± 1.6	1231.6 ± 1.6	1224.9 ± 1.6

CCOS(=O)(=O)[O-].CCn1cc[n+](C)c1 [1-ethyl-3-methylimidazolium ethyl sulfate] + O
mass density [kg/m3], [2]
Conditions	288.15 K	298.15 K	308.15 K	318.15 K
x1 = 0.0319	1064.5 ± 1	1059.9 ± 1	1054.4 ± 1	1048.4 ± 1
x1 = 0.07	1114.1 ± 1	1108 ± 1	1101.8 ± 1	1095.1 ± 1
x1 = 0.1022	1141.9 ± 1	1135.3 ± 1	1128.5 ± 1	1121.5 ± 1
x1 = 0.1961	1186.1 ± 1	1178.9 ± 1	1171.8 ± 1	1164.6 ± 1
x1 = 0.2988	1208.5 ± 1	1201.4 ± 1	1194.3 ± 1	1187.2 ± 1
x1 = 0.395	1220.4 ± 1	1213.4 ± 1	1206.3 ± 1	1199.3 ± 1
x1 = 0.4939	1228.4 ± 1.1	1221.4 ± 1.1	1214.4 ± 1.1	1207.4 ± 1.1
x1 = 0.5829	1233.3 ± 1.1	1226.4 ± 1.1	1219.4 ± 1.1	1212.5 ± 1.1
x1 = 0.6798	1237.1 ± 1.2	1230.2 ± 1.2	1223.4 ± 1.2	1216.6 ± 1.2
x1 = 0.7975	1240.8 ± 1.3	1233.9 ± 1.3	1227.1 ± 1.3	1220.3 ± 1.3
x1 = 0.8726	1242.6 ± 1.4	1235.8 ± 1.4	1229 ± 1.4	1222.3 ± 1.4
x1 = 1	1245.3 ± 1.6	1238.3 ± 1.6	1231.6 ± 1.6	1224.9 ± 1.6

CCCCCCCCOS(=O)(=O)[O-].CCn1cc[n+](C)c1 [1-ethyl-3-methylimidazolium octyl sulfate]
[1]
Conditions	mass density [kg/m3]
288.15 K	1100.7 ± 1
298.15 K	1093.8 ± 1
308.15 K	1087 ± 1
318.15 K	1080.5 ± 1

CCCCCCCCOS(=O)(=O)[O-].CCn1cc[n+](C)c1 [1-ethyl-3-methylimidazolium octyl sulfate] + CCO
mass density [kg/m3], [2]
Conditions	x1 = 0.098	x1 = 0.1901	x1 = 0.2985	x1 = 0.3955	x1 = 0.4964	x1 = 0.5975	x1 = 0.6844	x1 = 0.792	x1 = 0.9047	x1 = 1
288.15 K	906.4 ± 1	964.1 ± 1	1006.3 ± 1	1031.6 ± 1	1050.9 ± 1	1065.6 ± 1	1075.6 ± 1	1085.7 ± 1	1094.4 ± 1	1100.7 ± 1
298.15 K	898.5 ± 1	956.5 ± 1	998.9 ± 1	1024.4 ± 1	1043.9 ± 1	1058.7 ± 1	1068.8 ± 1	1078.9 ± 1	1087.5 ± 1	1093.8 ± 1
308.15 K	890.7 ± 1	949 ± 1	991.8 ± 1	1017.4 ± 1	1037 ± 1	1051.9 ± 1	1062.1 ± 1	1072.3 ± 1	1081 ± 1	1087 ± 1
318.15 K	882.8 ± 1	941.4 ± 1	984.4 ± 1	1010.3 ± 1	1030.1 ± 1	1045.2 ± 1	1055.4 ± 1	1065.8 ± 1	1074.4 ± 1	1080.5 ± 1

CCCCCCCCOS(=O)(=O)[O-].CCn1cc[n+](C)c1 [1-ethyl-3-methylimidazolium octyl sulfate] + O
mass density [kg/m3], [2]
Conditions	x1 = 0.0053	x1 = 0.1002	x1 = 0.3923	x1 = 0.5963	x1 = 0.7373	x1 = 0.7747	x1 = 0.8545	x1 = 0.9371	x1 = 1
298.15 K	1005.3 ± 1	1060.6 ± 1	1086.3 ± 1	1090.5 ± 1	1092.1 ± 1	1092.4 ± 1	1093 ± 1	1093.5 ± 1	1093.8 ± 1
308.15 K	1001.8 ± 1	1054 ± 1	1079.6 ± 1	1083.8 ± 1	1085.5 ± 1	1085.7 ± 1	1086.4 ± 1	1086.9 ± 1	1087 ± 1
318.15 K	997.3 ± 1	1047.4 ± 1	1072.9 ± 1	1077.2 ± 1	1079.1 ± 1	1079.2 ± 1	1079.9 ± 1	1080.4 ± 1	1080.5 ± 1

CCCCCCOS(=O)(=O)[O-].CC[n+]1ccn(C)c1 [3-ethyl-1-methyl-1H-imidazolium hexyl sulfate]
[1]
Conditions	mass density [kg/m3]
288.15 K	1136.6 ± 1.4
298.15 K	1129.6 ± 1.4
308.15 K	1123.1 ± 1.4
318.15 K	1116.6 ± 1.4
